Data published in ChEMBL document CHEMBL1201862, “PubChem BioAssay data set” (2004).
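Briefly, cells in 96-well plates were exposed to five compound concentrations for 48 h, and endpoints were estimated by linear interpolation. Abbreviation: GI50, concentration required for 50% inhibition of growth.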 Activity calls are given as the source filed them. No stated cut-off is given here; in the data, active = GI50 up to about 1.1 µM and inactive = higher.

Assays:
Experiment in all cases: NCI anticancer screen, dose series, 48 h
[1] = test system: 786-0
[2] = test system: IGROV-1
[3] = test system: CCRF-CEM
[4] = test system: Hs-578T
[5] = test system: OVCAR-8
[6] = test system: UO-31
[7] = test system: SNB-19
[8] = test system: A498
[9] = test system: DU-145
[10] = test system: EKVX
[11] = test system: SW-620
[12] = test system: BT-549
[13] = test system: PC-3
[14] = test system: MOLT-4
[15] = test system: MCF7
[16] = test system: HCT-116
[17] = test system: OVCAR-5
[18] = test system: NCI-H23
[19] = test system: NCI/ADR-RES
[20] = test system: M19-MEL

SMILES	GI50 [1]	GI50 [2]	GI50 [3]	GI50 [4]	GI50 [5]	GI50 [6]	GI50 [7]	GI50 [8]	GI50 [9]	GI50 [10]	GI50 [11]	GI50 [12]	GI50 [13]	GI50 [14]	GI50 [15]	GI50 [16]	GI50 [17]	GI50 [18]	GI50 [19]	GI50 [20]
C[C@]12CC[C@H]3[C@@H](CCC4=CC(=O)CC[C@@]43C)[C@]1(O)CC[C@]2(O)C(=O)CO	> 100 µM (inactive)	> 100 µM (inactive)	> 100 µM (inactive)	> 100 µM (inactive)	> 100 µM (inactive)	> 100 µM (inactive)	> 100 µM (inactive)	> 100 µM (inactive)	> 100 µM (inactive)	> 100 µM (inactive)	> 100 µM (inactive)	> 100 µM (inactive)	> 100 µM (inactive)	> 100 µM (inactive)	> 100 µM (inactive)	> 100 µM (inactive)	> 100 µM (inactive)	> 100 µM (inactive)	> 100 µM (inactive)	–
FC(F)(F)c1ccc2c(c1)nc(Cc1ccccc1)n2C[C@@H]1CCCN2CCCCC12 (stereo partly specified)	13.9 µM (inactive)	12.9 µM (inactive)	17.1 µM (inactive)	18.5 µM (inactive)	15.3 µM (inactive)	0.19 µM (active)	14.8 µM (inactive)	15.5 µM (inactive)	15.5 µM (inactive)	8.47 µM (inactive)	21.7 µM (inactive)	14 µM (inactive)	14.3 µM (inactive)	12.9 µM (inactive)	14.1 µM (inactive)	14.1 µM (inactive)	16.1 µM (inactive)	14.6 µM (inactive)	15.1 µM (inactive)	–
O=C(Nc1ccccc1)N(CCCCN(Cc1ccccc1)C(=O)Nc1ccccc1)Cc1ccccc1	95.3 µM (inactive)	> 100 µM (inactive)	> 100 µM (inactive)	> 100 µM (inactive)	> 100 µM (inactive)	40 µM (inactive)	38 µM (inactive)	> 100 µM (inactive)	> 100 µM (inactive)	72.3 µM (inactive)	> 100 µM (inactive)	> 100 µM (inactive)	> 100 µM (inactive)	52.7 µM (inactive)	92 µM (inactive)	30.1 µM (inactive)	> 100 µM (inactive)	> 100 µM (inactive)	> 100 µM (inactive)	–
O=C(c1ccccc1)[C@H]1Nc2ccc(Cl)cc2C2c3ccccc3CC21 (stereo partly specified)	30.8 µM (inactive)	> 100 µM (inactive)	–	–	53.8 µM (inactive)	> 100 µM (inactive)	> 100 µM (inactive)	–	–	–	50.5 µM (inactive)	–	–	11.9 µM (inactive)	–	26 µM (inactive)	> 100 µM (inactive)	60.3 µM (inactive)	–	71.4 µM (inactive)
COc1ccc(/N=c2\ssc(C(=S)Nc3ccc(OC)cc3)c2S)cc1	> 100 µM (inactive)	> 100 µM (inactive)	31.6 µM (inactive)	> 100 µM (inactive)	97.5 µM (inactive)	> 100 µM (inactive)	> 100 µM (inactive)	> 100 µM (inactive)	> 100 µM (inactive)	> 100 µM (inactive)	> 100 µM (inactive)	> 100 µM (inactive)	> 100 µM (inactive)	> 100 µM (inactive)	69 µM (inactive)	88.1 µM (inactive)	> 100 µM (inactive)	> 100 µM (inactive)	> 100 µM (inactive)	–
Oc1nnnc2c1sc1ncccc12	> 100 µM (inactive)	> 100 µM (inactive)	> 100 µM (inactive)	> 100 µM (inactive)	> 100 µM (inactive)	84.5 µM (inactive)	> 100 µM (inactive)	39.8 µM (inactive)	> 100 µM (inactive)	63.1 µM (inactive)	> 100 µM (inactive)	> 100 µM (inactive)	> 100 µM (inactive)	> 100 µM (inactive)	> 100 µM (inactive)	> 100 µM (inactive)	> 100 µM (inactive)	> 100 µM (inactive)	> 100 µM (inactive)	–
Cc1c(Cc2ccccc2)c(Cc2ccccc2)c(C)[s+]1[O-]	22.9 µM (inactive)	36.8 µM (inactive)	19.1 µM (inactive)	37.8 µM (inactive)	41.3 µM (inactive)	31.7 µM (inactive)	47.1 µM (inactive)	24.5 µM (inactive)	38.3 µM (inactive)	18.4 µM (inactive)	26.4 µM (inactive)	33.2 µM (inactive)	18.8 µM (inactive)	14.7 µM (inactive)	20.3 µM (inactive)	24.1 µM (inactive)	20.1 µM (inactive)	28.3 µM (inactive)	19.7 µM (inactive)	–
Cc1cn(C2CC(N=[N+]=[N-])C(CO[Si](C)(C)C(C)(C)C)O2)c(=O)[nH]c1=O (stereo unspecified)	15.6 µM (inactive)	18.7 µM (inactive)	24.5 µM (inactive)	17.6 µM (inactive)	19.4 µM (inactive)	16.6 µM (inactive)	19.8 µM (inactive)	16.1 µM (inactive)	21.6 µM (inactive)	23.5 µM (inactive)	16.9 µM (inactive)	10.7 µM (inactive)	15.7 µM (inactive)	26.7 µM (inactive)	18 µM (inactive)	16.1 µM (inactive)	23 µM (inactive)	21.1 µM (inactive)	16.6 µM (inactive)	–
CC1=NN(c2nc(N)nc(CSc3cc(Cl)c(C)cc3S(N)(=O)=O)n2)C(C)(C)C1	> 10 µM (inactive)	> 10 µM (inactive)	> 10 µM (inactive)	> 10 µM (inactive)	> 10 µM (inactive)	0.543 µM (active)	> 10 µM (inactive)	> 10 µM (inactive)	> 10 µM (inactive)	> 10 µM (inactive)	> 10 µM (inactive)	> 10 µM (inactive)	> 10 µM (inactive)	> 10 µM (inactive)	> 10 µM (inactive)	> 10 µM (inactive)	> 10 µM (inactive)	> 10 µM (inactive)	> 10 µM (inactive)	–
Cc1ccc(S(N)(=O)=O)cc1 [P-TOLUENESULFONAMIDE]	> 1000 µM (inactive)	> 1000 µM (inactive)	> 1000 µM (inactive)	> 1000 µM (inactive)	> 1000 µM (inactive)	> 1000 µM (inactive)	> 1000 µM (inactive)	> 1000 µM (inactive)	> 1000 µM (inactive)	> 1000 µM (inactive)	> 1000 µM (inactive)	977 µM (inactive)	> 1000 µM (inactive)	> 1000 µM (inactive)	> 1000 µM (inactive)	> 1000 µM (inactive)	> 1000 µM (inactive)	> 1000 µM (inactive)	> 1000 µM (inactive)	–
C[C@]12C=CC(=O)C=C1CC[C@@H]1[C@@H]2CC[C@]2(C)OC(=O)CC[C@@H]12 [TESTOLACTONE]	> 500 µM (inactive)	453 µM (inactive)	431 µM (inactive)	319 µM (inactive)	> 462 µM (inactive)	444 µM (inactive)	> 500 µM (inactive)	347 µM (inactive)	> 343 µM (inactive)	318 µM (inactive)	> 486 µM (inactive)	237 µM (inactive)	> 500 µM (inactive)	375 µM (inactive)	457 µM (inactive)	> 466 µM (inactive)	> 489 µM (inactive)	> 491 µM (inactive)	> 492 µM (inactive)	–
